Data set [1] has as its system SUDHL5 cells. In words: Induction of caspase-3/7 activity (Caspase-Glo 3/7), SUDHL5. It is filed as cell-based. The following applies: EC50, median, SUDHL5, 3 h treatment. The essentials:
(§1)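 Caspase-3/7 activation serves as the apoptosis read-out for MCL-1 inhibition. Cells are treated with compound for 3 h at 37 °C and assayed with Caspase-Glo 3/7; values are corrected by subtracting medium-only background.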

In data set [2] the test system is SUDHL5 cells. Briefly: Antiproliferation assay (CellTiter-Glo, 72 h), SUDHL5. Particulars: IC50, median, SUDHL5, 72 h, read-out: Antiproli SUDHL5 [M] (median). The class given is cell-based. The essentials: (§2)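 Cells plated in treatment plates plus a day 0 reference plate; incubated 72 h at 37 °C; CellTiter-Glo added, 10 min incubation, luminescence read; day 0 plate read at time zero.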
On the technique in general: ATP-based viability assays read luminescence as a measure of living cells.

A further data set has as its system AMO-1 cells. Briefly: Antiproliferation assay (CellTiter-Glo, 72 h), AMO-1. The class given is cell-based. The following applies: IC50, median, AMO-1, 72 h, read-out: Antiproli AMO-1 [M] median. The essentials:
as §2

The next data set relates to HMC-1-8 cells. In words: Antiproliferation assay (CellTiter-Glo, 72 h), HMC-1-8. Particulars: IC50, median, HMC-1-8, 72 h, read-out: Antiproli HMC-1-8 [M] median. The class given is cell-based. The method, then: Assessment of the Anti-Proliferative Effect of Compounds in Different Cell Lines
The impact of compounds on the proliferation of different cell lines was assessed using the CellTiter-Glo® Luminescent Cell Viability reagent from Promega (G7573).
In parallel, cells were plated in a reference (day 0) plate for time zero determination.
Rim wells were excluded. The cells were incubated for 72 h hours in a humidified incubator at 37° C. The day 0 plate was measured by adding 30 μL/well of CTG solution (CellTiter-Glo® Luminescent Cell Viability reagent, Promega G7573) to time zero wells in the reference plate followed by a 10 minutes incubation and luminescence reading at 0.1 ms. using the PHERAstar FS microplate reader (BMG Labtech).
After 72 h incubation, the treated plates were measured in the same way as the day 0 plate mentioned above.

In data set [3] the test system is SUDHL5 cells. In words: Induction of cytotoxicity (CellTiter-Glo, 5 h), SUDHL5. Particulars: SUDHL5, 5 h.
Data set [4] has as its system SUDHL10 cells. In words: Induction of caspase-3/7 activity (Caspase-Glo 3/7), SUDHL10. Particulars: EC50, median, SUDHL10, 3 h treatment. It is filed as cell-based. The gist of the method:
as §1

Data set [5] deals with SUDHL10 cells. Briefly: Induction of cytotoxicity (CellTiter-Glo, 5 h), SUDHL10. Particulars: SUDHL10, 5 h.
Setting [6] is: Homo sapiens, SU-DHL-5, 5 h, read-out: Cytotox SUDHL5 [M] (median), IC50, median.
Setting [7] is: read-out: Cytotox SUDHL5 [M] (median), IC50, median.
Where [8] appears, read: Homo sapiens, SU-DHL10, 5 h, read-out: Cytotox SUDHL10 [M] (median), IC50, median.

The structures appear in SMILES notation. Structures can show the parent of a compound that is named as a salt. Where two headings read alike, the source gives them in different places.

For `Cc1c2c(nn1C)COCC1CCC1Cn1c(C(=O)O)c(CCCOc3cccc4ccccc34)c3ccc(Cl)c-2c31` (single isomer, unassigned; stereoisomer 2) [Example 64], the EC50 – broadly, the concentration that produces a half-maximal response – with SUDHL5 cells [1] stood at 0.33 µM. Also, the IC50 in the data set on SUDHL5 cells [2] (Homo sapiens, SU-DHL-5, 72 h) was 5e-07 M; with AMO-1 cells (Homo sapiens, AMO1, 72 h) it was 1.6e-06 M; in the data set with HMC-1-8 cells (72 h), 5.6e-06 M; with SUDHL5 cells [3] (setting [6]) it was 5.4e-07 M.
For `Cc1c2c(nn1C)COCC1CCC1Cn1c(C(=O)O)c(CCCOc3cccc4ccccc34)c3ccc(Cl)c-2c31` (single isomer, unassigned; enantiomer 2) [Example 79, 3-chloro-4,5-dimethyl-15-{3-[(naphthalen-1-yl)oxy]propyl}-5,7,9,9a,10,11,11a,12-octahydrocyclobuta[3,4]pyrazolo[4′,3′:9,10][1,6]oxazacycloundecino[8,7,6-hi]indole-14-carboxylic acid (Enantiomer 2)], the EC50 with SUDHL5 cells [1] (listed as 079) amounted to 0.58 µM; in the data set on SUDHL10 cells [4] (listed as 079), 1.4 µM. Besides, the IC50 in the data set with AMO-1 cells (listed as 079) stood at 1.7e-06 M; in the data set with HMC-1-8 cells (72 h) it was 8.6e-06 M; in the data set with SUDHL5 cells [3] (read-out: Cytotox SUDHL5 [M] (median), IC50, median, listed as 079) it was 7.7e-07 M; with SUDHL10 cells [5] (read-out: Cytotox SUDHL10 [M] (median), IC50, median, listed as 079) it was 1.6e-06 M.
Regarding `CCc1c2c(nn1C)CN(CC(F)F)CCCCn1c(C(=O)O)c(CCCOc3cccc4cc(F)ccc34)c3ccc(Cl)c-2c31` (racemic) [Example 62, (rac)-4-chloro-14-(2,2-difluoroethyl)-3-ethyl-7-{3-[(6-fluoronaphthalen-1-yl)oxy]propyl}-2-methyl-10,11,12,13,14,15-hexahydro-2H-pyrazolo[3′,4′:8,9][1,6]diazacycloundecino[10,11,1-hi]indole-8-carboxylic acid], in the data set on SUDHL10 cells [4], a half-maximal effect (EC50) was put at 0.38 µM. Also, the IC50 in the data set with SUDHL5 cells [2] came out at 3.4e-07 M; in the data set with AMO-1 cells it was 2.2e-07 M; with HMC-1-8 cells (72 h), 2.2e-06 M; in the data set with SUDHL5 cells [3] (setting [7]) it was 3.1e-07 M; with SUDHL10 cells [5] (read-out: Cytotox SUDHL10 [M] (median), IC50, median), 3.6e-07 M.
As to `CCc1c2c(nn1C)COCC1CC1Cn1c(C(=O)O)c(CCCOc3cccc4cc(F)ccc34)c3ccc(Cl)c-2c31` (single isomer, unassigned; (+)) [Example 104, (+)-3-chloro-4-ethyl-14-{3-[(6-fluoronaphthalen-1-yl)oxy]propyl}-5-methyl-5,7,9a,10,10a,11-hexahydro-9H-cyclopropa[3,4]pyrazolo[4′,3′:9,10][1,6]oxazacycloundecino[8,7,6-hi]indole-13-carboxylic acid N-ethylethanamine salt], the values for the concentration giving a half-maximal response (EC50) in the data set with SUDHL5 cells [1] and in the data set with SUDHL10 cells [4] were 0.81 µM and 1.5 µM, respectively. Also, the IC50 came to 1e-06 M in the data set on SUDHL5 cells [2] (Homo sapiens, SU-DHL-5, 72 h); 2.4e-06 M with AMO-1 cells; 8.5e-06 M in the data set on HMC-1-8 cells; 9.7e-07 M in the data set with SUDHL5 cells [3] (setting [7]).
For the compound `CCc1c2c(nn1C)CCCN(CC(F)F)CCn1c(C(=O)O)c(CCCOc3cccc4cc(F)ccc34)c3ccc(Cl)c-2c31` [Example 120, (−)-4-chloro-12-(2,2-difluoroethyl)-3-ethyl-7-{3-[(6-fluoronaphthalen-1-yl)oxy]propyl}-2-methyl-10,11,12,13,14,15-hexahydro-2H-pyrazolo[3′,4′:8,9][1,4]diazacycloundecino[10,11,1-hi]indole-8-carboxylic acid N-ethylethanamine salt], a half-maximal response in the data set on SUDHL5 cells [1] (EC50) required 10 µM. Also, the values for the IC50 in the data set on SUDHL5 cells [2] and in the data set on HMC-1-8 cells were 7e-06 M and 7.1e-06 M, respectively.
In the data set with SUDHL10 cells [4] (Homo sapiens, SU-DHL10, 3 h), `CCc1c2c(nn1C)CN(CCC1CCOCC1)CCCCn1c(C(=O)O)c(CCCOc3cccc4cc(F)ccc34)c3ccc(Cl)c-2c31` (racemic) [Example 135, (rac)-4-chloro-3-ethyl-7-{3-[(6-fluoronaphthalen-1-yl)oxy]propyl}-2-methyl-14-[2-(oxan-4-yl)ethyl]-10,11,12,13,14,15-hexahydro-2H-pyrazolo[3′,4′:8,9][1,6]diazacycloundecino[10,11,1-hi]indole-8-carboxylic acid] gave a concentration giving a half-maximal response (EC50) of 0.14 µM. Also, the IC50 in the data set with SUDHL5 cells [2] (Homo sapiens, SU-DHL-5, 72 h) was found to be 1.2e-07 M; in the data set with AMO-1 cells (Homo sapiens, AMO1, 72 h), 1.2e-07 M; with HMC-1-8 cells (72 h), 8.7e-07 M; in the data set on SUDHL10 cells [5] (setting [8]), 1.5e-07 M.
For the compound `Cc1c2c(nn1C)COCC1CCC1Cn1c(C(=O)O)c(CCCOc3cccc4ccccc34)c3ccc(Cl)c-2c31` (single isomer, unassigned) [Example 81, 3-chloro-4,5-dimethyl-15-{3-[(naphthalen-1-yl)oxy]propyl}-5,7,9,9a,10,11,11a,12-octahydrocyclobuta[3,4]pyrazolo[4′,3′:9,10][1,6]oxazacycloundecino[8,7,6-hi]indole-14-carboxylic acid], the results for the EC50 with SUDHL5 cells [1] (listed as 081) and in the data set on SUDHL10 cells [4] (listed as 081) were 7.4 µM and 6.2 µM, respectively. Further, the IC50 worked out at 5.5e-06 M in the data set with HMC-1-8 cells (listed as 081); 5.8e-06 M with SUDHL5 cells [3] (read-out: Cytotox SUDHL5 [M] (median), IC50, median, listed as 081); 8.4e-06 M in the data set on SUDHL10 cells [5] (read-out: Cytotox SUDHL10 [M] (median), IC50, median, listed as 081).
For `Cc1c2c(nn1C)CN(CC(F)(F)F)CCCCn1c(C(=O)O)c(CCCOc3cccc4cc(F)ccc34)c3ccc(Cl)c-2c31` (single isomer, unassigned; enantiomer 2) [Example 60, 4-chloro-7-{3-[(6-fluoronaphthalen-1-yl)oxy]propyl}-2,3-dimethyl-14-(2,2,2-trifluoroethyl)-10,11,12,13,14,15-hexahydro-2H-pyrazolo[3′,4′:8,9][1,6]diazacycloundecino[10,11,1-hi]indole-8-carboxylic acid—Enantiomer 2], the EC50 with SUDHL5 cells [1] came out at 7.6 µM. Moreover, the IC50 in the data set on SUDHL5 cells [2] worked out at 3.9e-06 M; with HMC-1-8 cells (72 h), 8.7e-06 M; in the data set with SUDHL5 cells [3] (setting [7]), 6.9e-06 M.
Turning to `CCc1c2c(nn1C)CN(C)CCCn1c(C(=O)O)c(CCCOc3cccc4cc(F)ccc34)c3ccc(Cl)c-2c31` (racemic) [Example 112, (rac)-12-chloro-11-ethyl-1-{3-[(6-fluoronaphthalen-1-yl)oxy]propyl}-7,10-dimethyl-4,5,6,7,8,10-hexahydropyrazolo[3′,4′:7,8][1,5]diazecino[9,10,1-hi]indole-2-carboxylic acid], the 50% effective concentration (EC50) was determined as 0.6 µM in the data set on SUDHL5 cells [1] and 0.86 µM in the data set on SUDHL10 cells [4]. For the same compound, the IC50 in the data set on SUDHL5 cells [2] (Homo sapiens, SU-DHL-5, 72 h) came out at 1.5e-06 M; in the data set on AMO-1 cells, 9.1e-07 M; in the data set on HMC-1-8 cells (72 h) it was 7.1e-06 M; in the data set on SUDHL5 cells [3] (setting [7]) it was 6.1e-07 M.
Take `Cc1c2c(nn1C)COCCC(F)(F)Cn1c(C(=O)O)c(CCCOc3cccc4ccccc34)c3ccc(Cl)c-2c31` [Example 94, 4-chloro-11,11-difluoro-2,3-dimethyl-7-{3-[(naphthalen-1-yl)oxy]propyl}-2,10,11,12,13,15-hexahydropyrazolo[4′,3′:9,10][1,6]oxazacycloundecino[8,7,6-hi]indole-8-carboxylic acid N-ethylethanamine salt]: the EC50 in the data set on SUDHL5 cells [1] (listed as 094) amounted to 1.6 µM; in the data set on SUDHL10 cells [4] (listed as 094) it was 3.1 µM. Besides, the IC50 in the data set on HMC-1-8 cells (72 h) amounted to 6.3e-06 M; with SUDHL5 cells [3] (read-out: Cytotox SUDHL5 [M] (median), IC50, median, listed as 094) it was 2.9e-06 M; in the data set with SUDHL10 cells [5] (read-out: Cytotox SUDHL10 [M] (median), IC50, median, listed as 094), 4.5e-06 M.
As to `Cc1nn(C)c2c1-c1c(Cl)ccc3c(CCCOc4cccc5ccccc45)c(C(=O)O)n(c13)CCCCOC2` (single isomer, unassigned; enantiomer 1) [Example 3, 4-chloro-1,3-dimethyl-7-[3-(naphthalen-1-yloxy)propyl]-1,10,11,12,13,15-hexahydropyrazolo[4′,3′:9,10][1,6]oxazacycloundecino[8,7,6-hi]indole-8-carboxylic acid (Enantiomer 1)], the EC50 in the data set on SUDHL5 cells [1] (Homo sapiens, SU-DHL-5, 3 h) came to 0.71 µM; in the data set on SUDHL10 cells [4] (Homo sapiens, SU-DHL10, 3 h), 1.6 µM. Further, the IC50 in the data set on AMO-1 cells (Homo sapiens, AMO1, 72 h) stood at 2.5e-06 M; in the data set with HMC-1-8 cells (72 h), 8.3e-06 M; in the data set with SUDHL5 cells [3] (setting [6]), 6.5e-07 M; in the data set with SUDHL10 cells [5] (setting [8]), 1.5e-06 M.

Source of the values: patent publication US11478451B1, “Macrocyclic chlorine substituted indole derivatives” (Bayer Aktiengesellschaft, priority 2017, dated 2022).
